According to patent US20250320184A1 (SIRONAX LTD., priority 2022, published 2025):

What follows are compounds tested against T1, SARM1 (50-724) (Homo sapiens, UniProt Q6SZW1) (assay: biochemical).
T1 sequence (Q6SZW1 50-724): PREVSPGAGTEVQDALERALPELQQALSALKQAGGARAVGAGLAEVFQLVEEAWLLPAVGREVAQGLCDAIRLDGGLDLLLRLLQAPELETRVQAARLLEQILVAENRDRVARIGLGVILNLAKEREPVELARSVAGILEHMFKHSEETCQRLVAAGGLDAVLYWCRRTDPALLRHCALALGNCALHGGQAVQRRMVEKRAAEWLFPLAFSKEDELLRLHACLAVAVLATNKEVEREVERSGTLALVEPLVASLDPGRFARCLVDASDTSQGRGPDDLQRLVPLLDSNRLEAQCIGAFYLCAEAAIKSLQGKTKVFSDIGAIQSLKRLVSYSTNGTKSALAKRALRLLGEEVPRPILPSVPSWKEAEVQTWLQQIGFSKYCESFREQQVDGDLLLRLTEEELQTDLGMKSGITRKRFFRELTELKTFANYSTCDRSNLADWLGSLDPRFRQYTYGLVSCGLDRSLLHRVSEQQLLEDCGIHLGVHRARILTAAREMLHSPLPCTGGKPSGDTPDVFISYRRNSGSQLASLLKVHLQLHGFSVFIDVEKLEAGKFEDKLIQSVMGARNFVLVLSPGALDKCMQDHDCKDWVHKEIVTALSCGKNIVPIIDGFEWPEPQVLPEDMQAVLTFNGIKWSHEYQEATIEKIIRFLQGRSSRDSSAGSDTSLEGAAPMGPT
Procedure: An enzymatic assay was performed in a 384-well plate using Dulbecco's phosphate-buffered saline (PBS) as the reaction buffer. […] The reaction was initiated by adding a mixture of 200 μM nicotinamide mononucleotide (NMN) as activator and 100 μM NAD^+ as substrate. After 1 h of incubation at room temperature, the reaction was terminated with 10 times volume of 70% acetonitrile, then centrifuged at 3800 rpm for 10 min.

First: Cc1cc(F)cc(C(Nc2ccc3c(c2)C(=O)NCC3)c2ccncc2)c1 (centres unmarked) [Example 177, 7-(((3-fluoro-5-methylphenyl)(pyridin-4-yl)methyl)amino)-3,4-dihydroisoquinolin-1(2H)-one]
Second: Cc1cc(F)cc(C(Nc2ccc3c(c2)C(=O)NCC3)C(C)C)c1 (racemic) [Example 144, 7-((1-(3-fluoro-5-methylphenyl)-2-methylpropyl)amino)-3,4-dihydroisoquinolin-1(2H)-one]
The IC50 of the first is higher: over 1000 nM for the first, 100 to 500 nM for the second.

Compared with CCC(C(N)=O)c1ccc(NS(=O)(=O)c2cccc(Cl)c2Cl)cc1 (single isomer, unassigned) [Compound 270], Cn1cnc2cc(NS(=O)(=O)c3cccc(Cl)c3Cl)ccc21 [Compound 77, 2,3-dichloro-N-(1-methyl-1H-benzo[d]imidazol-5-yl)benzenesulfonamide] is higher in IC50: under 100 nM for the first, 100 to 500 nM for the second.

CC(Nc1ccc2cc[nH]c(=O)c2c1)c1nn(C2CC2)c(Cl)c1Cl (racemic) [Compound 321, 7-((1-(4,5-dichloro-1-cyclopropyl-1H-pyrazol-3-yl)ethyl)amino)isoquinolin-1(2H)-one] and CCn1nc(C(C)Nc2ccc3cc[nH]c(=O)c3c2)c(Cl)c1C (racemic) [Compound 247, 7-((1-(4-chloro-1-ethyl-5-methyl-1H-pyrazol-3-yl)ethyl)amino)isoquinolin-1(2H)-one] cannot be ordered by IC50: under 100 nM for the first, under 100 nM for the second.

First: Cc1c(F)cccc1[S+]([O-])Nc1ccc2c(c1)C(=O)NCC2 (centres unmarked) [Example 158]
Second: Cc1cccc(C)c1S(=O)(=O)Nc1ccc2c(c1)C(=O)NCC2 [Compound 18, 2,6-dimethyl-N-(1-oxo-1,2,3,4-tetrahydroisoquinolin-7-yl)benzenesulfonamide]
The IC50 of the first is higher: over 1000 nM for the first, 500 to 1000 nM for the second. The second is the more potent here.

Compared with CC(Nc1ccc2ccccc2c1)c1cccc(Cl)c1Cl (centres unmarked) [Example 13A, N-(1-(2,3-dichlorophenyl)ethyl)naphthalen-2-amine], CC(Nc1ccc2cc[nH]c(=O)c2c1)c1cccc(Cl)c1Cl (racemic) [Example 103, 7-((1-(2,3-dichlorophenyl)ethyl)amino)isoquinolin-1(2H)-one] is lower in IC50: over 1000 nM for the first, under 100 nM for the second. The second is the more potent here.

First: CC(Nc1ccc2cc[nH]c(=O)c2c1)c1nccc(Cl)c1Cl (single isomer, unassigned) [Example 194B]
Second: CC(Nc1ccc2cc[nH]c(=O)c2c1)c1cc(Cl)cnc1Cl (racemic) [Example 122, 7-((1-(2,5-dichloropyridin-3-yl)ethyl)amino)isoquinolin-1(2H)-one]
The IC50 of the first is higher: over 1000 nM for the first, 500 to 1000 nM for the second. The second is the more potent here.

Cc1n[nH]c(=O)c2cc(NC(C)c3nn(C)c(Cl)c3Cl)cc(F)c12 (racemic) [Compound 316, 7-((1-(4,5-dichloro-1-methyl-1H-pyrazol-3-yl)ethyl)amino)-5-fluoro-4-methylphthalazin-1(2H)-one] and Cc1n[nH]c(=O)c2cc(N[C@@H](C)c3nc(Cl)c(Cl)s3)ccc12 (single isomer, unassigned) [Example 239A] cannot be ordered by IC50: under 100 nM for the first, under 100 nM for the second.

Cc1sc(C(C)Nc2ccc3c(C)n(CC(N)=O)nc3c2)nc1Cl (racemic) [Compound 379, 2-(6-((1-(4-chloro-5-methylthiazol-2-yl)ethyl)amino)-3-methyl-2H-indazol-2-yl)acetamide] and CC(Nc1ccc2c(Cl)n(CC(N)=O)nc2c1)c1nc(Cl)c(Cl)s1 (racemic) [Compound 361, 2-(3-chloro-6-((1-(4,5-dichlorothiazol-2-yl)ethyl)amino)-2H-indazol-2-yl)acetamide] cannot be ordered by IC50: under 100 nM for the first, under 100 nM for the second.

CC(Nc1ccc2c(c1)N(C(N)=O)CC2(C)C)c1nc(Cl)c(Cl)s1 (racemic) [Compound 276, 6-((1-(4,5-dichlorothiazol-2-yl)ethyl)amino)-3,3-dimethylindoline-1-carboxamide] and CC(Nc1ccc2c(c1)NC(=O)OC2(C)C)c1nc(Cl)c(Cl)s1 (racemic) [Compound 258, 7-((1-(4,5-dichlorothiazol-2-yl)ethyl)amino)-4,4-dimethyl-1,4-dihydro-2H-benzo[d][1,3]oxazin-2-one] cannot be ordered by IC50: under 100 nM for the first, under 100 nM for the second.

O=S(=O)(Nc1ccc2c(Cl)n[nH]c2c1)c1cccc(Cl)c1Cl [Compound 78, 2,3-dichloro-N-(3-chloro-1H-indazol-6-yl)benzenesulfonamide] and Cc1c2ccc(NS(=O)(=O)c3cccc(Cl)c3Cl)cc2nn1C [Compound 72, 2,3-dichloro-N-(2,3-dimethyl-2H-indazol-6-yl)benzenesulfonamide] cannot be ordered by IC50: under 100 nM for the first, under 100 nM for the second.

CC1(C)CN(C(=O)C2CCOCC2)c2cc(NS(=O)(=O)c3cccc(Cl)c3Cl)ccc21 [Compound 284, 2,3-dichloro-N-[3,3-dimethyl-1-(tetrahydropyran-4-carbonyl)indolin-6-yl]benzenesulfonamide] and CC1(C)CN(C(=O)c2cccnc2)c2cc(NS(=O)(=O)c3cccc(Cl)c3Cl)ccc21 [Compound 285, 2,3-dichloro-N-(3,3-dimethyl-1-nicotinoylindolin-6-yl)benzenesulfonamide] cannot be ordered by IC50: under 100 nM for the first, under 100 nM for the second.

CC1(C)C(=O)Nc2cc(NC(CO)c3c(Cl)ccc(F)c3Cl)ccc21 (racemic) [Example 238, 6-((1-(2,6-dichloro-3-fluorophenyl)-2-hydroxyethyl)amino)-3,3-dimethylindolin-2-one] and CC(Nc1ccc2c(c1)NC(=O)C2(C)C)c1cncc(Cl)c1Cl (racemic) [Compound 267, 6-((1-(4,5-dichloropyridin-3-yl)ethyl)amino)-3,3-dimethylindolin-2-one] cannot be ordered by IC50: under 100 nM for the first, under 100 nM for the second.

Compared with Cc1sc(C(C)Nc2ccc3c(C)n(CC(N)=O)nc3c2)nc1Cl (single isomer, unassigned) [Compound 381], Cc1nn(CC(N)=O)c(=O)c2cc(NC(C)c3nc(Cl)c(Cl)s3)ccc12 (single isomer, unassigned) [Compound 357] is lower in IC50: over 1000 nM for the first, under 100 nM for the second. The second is the more potent here.

Cc1c(F)cccc1S(=O)(=O)Nc1cccc(-c2cnn(C)c2)c1 [Example 161, 3-fluoro-2-methyl-N-(3-(1-methyl-1H-pyrazol-4-yl)phenyl)benzenesulfonamide] and Cc1c(F)cccc1S(=O)(=O)Nc1cccc(N2CCNC2=O)c1 [Compound 46, 3-fluoro-2-methyl-N-(3-(2-oxoimidazolidin-1-yl)phenyl)benzenesulfonamide] cannot be ordered by IC50: over 1000 nM for the first, over 1000 nM for the second.

CC1(C)C(=O)Nc2cc(NS(=O)(=O)c3cccc(Cl)c3Cl)ccc21 [Compound 204, 2,3-dichloro-N-(3,3-dimethyl-2-oxo-indolin-6-yl)benzenesulfonamide] and CC1(C)NC(=O)c2cc(NS(=O)(=O)c3cccc(Cl)c3Cl)ccc21 [Compound 227, 2,3-dichloro-N-(1,1-dimethyl-3-oxoisoindolin-5-yl)benzenesulfonamide] cannot be ordered by IC50: under 100 nM for the first, under 100 nM for the second.

CC(Nc1ccc2nc[nH]c(=O)c2c1)c1ccc(F)c(Cl)c1Cl (racemic) [Example 156, 6-[1-(2,3-dichloro-4-fluoro-phenyl)ethylamino]-3H-quinazolin-4-one] and O=c1[nH]cc(F)c2ccc(NS(=O)(=O)c3cccc(Cl)c3Cl)cc12 [Compound 62, 2,3-dichloro-N-(4-fluoro-1-oxo-1,2-dihydroisoquinolin-7-yl)benzenesulfonamide] cannot be ordered by IC50: under 100 nM for the first, under 100 nM for the second.

Compared with CC(=O)NC1CCCc2ccc(NS(=O)(=O)c3cccc(Cl)c3Cl)cc21 (racemic) [Compound 283, N-(7-((2,3-dichlorophenyl)sulfonamido)-1,2,3,4-tetrahydronaphthalen-1-yl)acetamide], CC1Cc2ccc(NS(=O)(=O)c3cccc(Cl)c3Cl)cc2C(=O)N1 (centres unmarked) [Compound 19, 2,3-dichloro-N-(3-methyl-1-oxo-1,2,3,4-tetrahydroisoquinolin-7-yl)benzenesulfonamide] is higher in IC50: under 100 nM for the first, 100 to 500 nM for the second.

CCC(Nc1ccc2c(Cl)n[nH]c(=O)c2c1)c1nc(Cl)c(Cl)s1 (racemic) [Example 254, 4-chloro-7-[1-(4,5-dichlorothiazol-2-yl)propylamino]-2H-phthalazin-1-one] and Cc1c[nH]c(=O)c2cc(NS(=O)(=O)c3cccc(Cl)c3Cl)ccc12 [Compound 188, 2,3-dichloro-N-(4-methyl-1-oxo-1,2-dihydroisoquinolin-7-yl)benzenesulfonamide] cannot be ordered by IC50: under 100 nM for the first, under 100 nM for the second.

First: CC(Nc1ccc2c(c1)C(=O)NCC2)c1ccc(Cl)c(Cl)c1 (racemic) [Example 104, 7-((1-(3,4-dichlorophenyl)ethyl)amino)-3,4-dihydroisoquinolin-1(2H)-one]
Second: Cc1cc(F)cc(C(CO)Oc2ccc3c(c2)C(=O)NCC3)c1 (centres unmarked) [Example 176, 7-(1-(3-fluoro-5-methylphenyl)-2-hydroxyethoxy)-3,4-dihydroisoquinolin-1(2H)-one]
The IC50 of the first is lower: 500 to 1000 nM for the first, over 1000 nM for the second. The first is the more potent here.

CC1(C)C(=O)N(CCCO)c2cc(NS(=O)(=O)c3cccc(Cl)c3Cl)ccc21 [Compound 273] and Cc1ccc(Cl)c(S(=O)(=O)Nc2ccc3cc[nH]c(=O)c3c2)c1Cl [Compound 37, 2,6-dichloro-3-methyl-N-(1-oxo-2H-isoquinolin-7-yl)benzenesulfonamide] cannot be ordered by IC50: under 100 nM for the first, under 100 nM for the second.

Compound CC(Nc1ccc2c(c1)c(C(=O)NCCO)nn2C)c1c(Cl)ccc(F)c1Cl (racemic) [Compound 282, 5-((1-(2,6-dichloro-3-fluorophenyl)ethyl)amino)-N-(2-hydroxyethyl)-1-methyl-1H-indazol-3-carboxamide] has an IC50 of under 100 nM.
